In general, inhibition refers to the change of the read-out against control, counted positive when it falls.

Marks after values point to notes of the source that are not given here.

We go through two compounds from paper PMC6631223, “Chain-Branched Polyhydroxylated Octahydro-1H-Indoles as Potential Leads against Lysosomal Storage Diseases” (Pharmaceuticals, 2019).

Format in all cases: biochemical
The target of experiment [1] is T1, α-Glucosidase (yeast) (Saccharomyces cerevisiae, UniProt P53341).
T1 construct: purchased Sigma-Aldrich Co
Description: Glycosidase inhibition: α-glucosidase (yeast). To be noted: α-glucosidase, yeast; 1000 μM. The source says: (§1) The enzymes α-glucosidase (from yeast, rice), β-glucosidase (from almonds, bovine liver), α-galactosidase (from coffee beans), β-galactosidase (from bovine liver), α-mannosidase (from jack beans), β-mannosidase (from snails), α-L-fucosidase (from bovine kidney), α-L-rhamnosidase (from Penicillium decumbens), β-glucuronidases (from Escherichia coli), α,α-trehalase (from porcine kidney), amyloglucosidase (from Aspergillus niger), p-nitrophenyl glycosides, and various disaccharides were purchased from Sigma-Aldrich Co. Brush border membranes were prepared from the rat small intestine according to the method of Kessler et al., and were assayed at pH 6.8 for rat intestinal maltase using maltose. For rat intestinal glucosidases and porcine kidney trehalase activities, the reaction mixture (0.2 mL) contained 25 mM substrate and the appropriate amount of enzyme, and the incubations were performed for 10 min at 37 °C. The reaction was stopped by heating at 100 °C for 3 min. After centrifugation (600 g; 10 min), 0.035 mL of the resulting reaction mixture were added to 2.1 mL of the Glucose CII-test Wako (Wako Pure Chemical Ind., Osaka, Japan). The absorbance at 505 nm was measured to determine the amount of the released D-glucose. Other glycosidase activities were determined using an appropriate p-nitrophenyl glycoside as substrate at the optimum pH of each enzyme. The reaction mixture (0.2 mL) contained 2 mM of the substrate and the appropriate amount of enzyme. The reaction was stopped by adding 0.4 mL of 400 mM Na2CO3. The released p-nitrophenol was measured spectrometrically at 400 nm.

Experiment [2] concerns Rat intestinal maltase. Kind of experiment: Glycosidase inhibition: rat intestinal maltase. The conditions noted are these: maltose, pH 6.8, 1000 μM.
Description: as §1

Experiment [3] addresses T2, Lactase (β-Galactosidase) (Rattus norvegicus, UniProt Q02401).
T2 construct: Brush border membranes were prepared from the rat small intestine; from tissue; host or cells: rat small intestine brush border membranes (inferred)
T2 sequence (Q02401 868-1928): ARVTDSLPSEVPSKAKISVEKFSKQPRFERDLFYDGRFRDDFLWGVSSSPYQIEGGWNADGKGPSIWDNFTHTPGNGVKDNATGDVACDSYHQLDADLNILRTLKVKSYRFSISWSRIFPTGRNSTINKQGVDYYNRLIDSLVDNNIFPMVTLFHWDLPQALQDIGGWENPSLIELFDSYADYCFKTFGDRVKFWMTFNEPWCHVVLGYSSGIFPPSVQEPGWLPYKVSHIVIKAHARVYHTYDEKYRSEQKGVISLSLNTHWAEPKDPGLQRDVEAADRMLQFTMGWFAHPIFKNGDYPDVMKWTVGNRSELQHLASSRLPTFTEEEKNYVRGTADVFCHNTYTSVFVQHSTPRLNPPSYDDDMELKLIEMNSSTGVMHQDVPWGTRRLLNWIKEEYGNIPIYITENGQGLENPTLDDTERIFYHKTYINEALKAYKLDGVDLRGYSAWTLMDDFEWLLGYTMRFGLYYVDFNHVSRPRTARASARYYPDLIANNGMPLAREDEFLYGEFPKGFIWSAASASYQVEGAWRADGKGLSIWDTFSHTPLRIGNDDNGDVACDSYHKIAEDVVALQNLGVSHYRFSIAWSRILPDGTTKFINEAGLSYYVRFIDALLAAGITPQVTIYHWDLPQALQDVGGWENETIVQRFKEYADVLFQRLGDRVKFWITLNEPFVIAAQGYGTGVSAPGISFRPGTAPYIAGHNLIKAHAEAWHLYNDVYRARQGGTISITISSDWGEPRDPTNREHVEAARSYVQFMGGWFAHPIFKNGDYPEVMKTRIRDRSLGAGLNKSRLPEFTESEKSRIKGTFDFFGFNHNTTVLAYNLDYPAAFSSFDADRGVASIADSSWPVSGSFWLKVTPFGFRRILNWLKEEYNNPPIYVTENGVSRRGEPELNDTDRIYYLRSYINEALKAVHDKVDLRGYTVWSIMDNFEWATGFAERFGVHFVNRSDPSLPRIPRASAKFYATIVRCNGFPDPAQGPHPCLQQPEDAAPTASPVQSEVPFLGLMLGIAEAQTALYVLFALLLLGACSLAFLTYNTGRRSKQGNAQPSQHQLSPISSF
Kind of experiment: Glycosidase inhibition: lactase. To be noted: read-out: inhibition % at 1000 μM.
Description: as §1

T1 sequence (P53341 whole entry): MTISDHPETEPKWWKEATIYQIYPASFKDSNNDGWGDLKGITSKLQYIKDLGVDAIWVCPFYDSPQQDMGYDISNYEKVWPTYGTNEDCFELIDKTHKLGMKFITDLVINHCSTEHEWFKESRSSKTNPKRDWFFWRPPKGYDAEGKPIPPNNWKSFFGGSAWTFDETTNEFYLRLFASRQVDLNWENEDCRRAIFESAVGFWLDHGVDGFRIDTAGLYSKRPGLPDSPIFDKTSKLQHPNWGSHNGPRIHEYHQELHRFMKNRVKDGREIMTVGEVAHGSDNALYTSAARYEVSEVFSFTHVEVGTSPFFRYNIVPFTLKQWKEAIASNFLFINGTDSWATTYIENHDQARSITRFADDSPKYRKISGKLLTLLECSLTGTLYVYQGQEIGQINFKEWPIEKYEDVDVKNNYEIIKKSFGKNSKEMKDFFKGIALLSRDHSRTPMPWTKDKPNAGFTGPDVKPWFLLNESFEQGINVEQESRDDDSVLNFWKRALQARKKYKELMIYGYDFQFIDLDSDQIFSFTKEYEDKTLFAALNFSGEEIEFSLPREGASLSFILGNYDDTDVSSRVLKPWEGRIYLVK

As for `CC[C@@H]1CN[C@H]2C[C@@H](O)[C@H](O)[C@@H](O)[C@H]12` [Compound 10, (3S,3aR,4S,5S,6R,7aS)-3-Ethyloctahydro-1H-indole-4,5,6-triol], the inhibition at 1000 µM stood at 16% in experiment [1] and 0.6% in experiment [3]. Moreover, the “inhibition % at 1000 μM” value in experiment [2] worked out at 4.1% ^a.
Turning to `CC[C@H]1CN[C@H]2C[C@@H](O)[C@H](O)[C@@H](O)[C@H]12` [Compound 13, (3R,3aR,4S,5S,6R,7aS)-3-ethyloctahydro-1H-indole-4,5,6-triol], the inhibition at 1000 µM in experiment [1] was 19.5%; in experiment [3], 7.4%. In addition, in experiment [2], the “inhibition % at 1000 μM” value stood at 0% ^a.
